Reference: patent US5597848A, “Benzenesulfonamide derivatives and use thereof” (Hokuriku Seiyaku Co., Ltd., priority 1992, dated 1997)

Key:
thromboxane A2 receptor = target: T1, thromboxane A2 receptor (Cavia porcellus, UniProt A0A286Y4I8); assay: Thromboxane A2 antagonistic effect: inhibition of U-46619-induced platelet aggregation in guinea-pig platelet-rich plasma; assay type: cell-based, guinea-pigs; details: guinea-pig PRP, U-46619 2 μg/ml, 2 min at 37° C.; read-out: IC50 (50% inhibition against platelet aggregation)
T1 construct: platelet-rich plasma; endogenous in cells; host or cells: guinea-pig platelets in platelet-rich plasma
T1 sequence (A0A286Y4I8 1-347): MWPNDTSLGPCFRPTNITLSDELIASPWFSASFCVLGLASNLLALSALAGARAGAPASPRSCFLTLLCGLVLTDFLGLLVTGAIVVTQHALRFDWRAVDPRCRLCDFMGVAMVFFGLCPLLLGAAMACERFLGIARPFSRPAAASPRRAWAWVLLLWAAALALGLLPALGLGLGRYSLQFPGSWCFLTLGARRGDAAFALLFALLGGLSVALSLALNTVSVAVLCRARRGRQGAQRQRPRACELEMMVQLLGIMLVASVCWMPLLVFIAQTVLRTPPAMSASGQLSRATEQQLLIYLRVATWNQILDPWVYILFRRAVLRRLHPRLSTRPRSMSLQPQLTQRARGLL
Method: Blood was collected from the abdominal aorta of guinea-pigs (about 400 g wt.) into 1/10 volume of 3.8% sodium citrate, and then platelet-rich plasma (PRP: 6×10^5 cells/μl) was obtained by centrifugation. A cuvette was filled with PRP 190 μl and set in an aggregometer (Hema Tracer I; Niko Bioscience). Incubation was carried out for 2 min. at 37° C. after the addition of 1 μl of dimethyl sulfoxide solution of test compounds. To the PRP, 10 μl of U-46619 (Cayman), a thromboxane A2 /prostaglandin H2 receptor agonist and potent platelet aggregation inducer, was added at the final concentration of 2 μg/ml, and platelet aggregation was measured by an aggregometer.

[1] = target: T2, thromboxane A2 synthetase (Homo sapiens, UniProt P24557); assay: Inhibitory effect on thromboxane A2 synthetase (human platelet membrane fraction, thromboxane B2 RIA); assay type: biochemical; details: 3 min at 25° C., read-out: IC50 (50% inhibition of the enzyme activity)
T2 construct: human platelet membrane fraction (RAN) as a source of thromboxane A2 synthetase; purchased RAN; host or cells: human platelet membrane fraction
T2 sequence (P24557 1-533): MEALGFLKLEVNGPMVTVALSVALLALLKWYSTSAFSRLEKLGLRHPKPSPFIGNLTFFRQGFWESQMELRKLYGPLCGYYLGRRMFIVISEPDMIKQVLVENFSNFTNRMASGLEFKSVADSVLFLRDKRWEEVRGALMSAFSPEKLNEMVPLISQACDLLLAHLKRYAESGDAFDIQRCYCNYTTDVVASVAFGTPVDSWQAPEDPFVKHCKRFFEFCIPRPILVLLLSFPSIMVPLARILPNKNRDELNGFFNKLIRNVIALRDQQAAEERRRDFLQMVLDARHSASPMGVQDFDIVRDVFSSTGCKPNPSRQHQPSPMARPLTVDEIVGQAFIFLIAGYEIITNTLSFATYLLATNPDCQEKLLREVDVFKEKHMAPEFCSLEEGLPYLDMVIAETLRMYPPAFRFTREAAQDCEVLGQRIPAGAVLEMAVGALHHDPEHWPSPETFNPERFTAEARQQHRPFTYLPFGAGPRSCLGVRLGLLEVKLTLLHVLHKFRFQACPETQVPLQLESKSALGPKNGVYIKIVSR
Method: 100 μg/ml (285 μl) of the commercially available human platelet membrane fraction (RAN) as a source of thromboxane A2 synthetase, dimethyl sulfoxide solution of test compounds (10 μl) and 100 μg/ml (5 μl) of prostaglandin H2 (Cayman) were mixed and reaction was carried out for 3 min at 25° C. Amount of thromboxane B2, a stable metabolite derived from thromboxane A2 produced, was measured by RIA method (TXB2 quantification kit; NEN).

leukotriene D4 = target: T3, leukotriene D4 (Cavia porcellus, UniProt Q2NNR5); assay: Leukotriene D4 antagonistic effect in isolated trachea (Schild method); set-up: species or system male Hartley guinea-pigs; details: for Kb: isolated trachea, 30 min treatment, indomethacin 3×10^-6 M, Krebs 37° C.
T3 construct: tracheas were isolated from male Hartley guinea-pigs; from tissue; host or cells: isolated trachea of male Hartley guinea-pigs
T3 sequence (Q2NNR5 1-340): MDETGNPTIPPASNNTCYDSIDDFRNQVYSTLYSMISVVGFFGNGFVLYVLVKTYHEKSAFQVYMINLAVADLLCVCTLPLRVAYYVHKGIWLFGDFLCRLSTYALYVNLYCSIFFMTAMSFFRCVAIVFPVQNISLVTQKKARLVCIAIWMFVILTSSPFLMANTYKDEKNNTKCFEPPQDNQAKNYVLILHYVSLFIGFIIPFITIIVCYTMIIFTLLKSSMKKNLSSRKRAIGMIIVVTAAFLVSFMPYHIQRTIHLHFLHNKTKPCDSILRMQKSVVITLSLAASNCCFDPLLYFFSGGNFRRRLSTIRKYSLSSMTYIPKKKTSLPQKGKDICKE
Method: According to an ordinary method, tracheas were isolated from male Hartley guinea-pigs, and ring specimens of approximately […] length were prepared. These specimens were suspended isotonically in organ baths that contained Krebs solution at 37° C. under a resting tension of 0.5 g. After repeated contractions with acetylcholine (1×10^-6 M; Ovisot for injection, Daiichi Seiyaku), and the first concentration-response curves was obtained by cummulative applications of leukotriene D4 (ULTRA FINE) into the organ baths. After treatments with test compounds at adequate concentrations for 30 min, the second concentration-response curves were obtained in the same manner as first applications. pKB values were calculated using these two concentration-response curves according to the method of Schild [Pharmacological Review, Vol. 9, 242 (1957)]. Indomethacin (3×10^-6 M; Sigma) was added beforehand to the organ bath to eliminate possible affections by thromboxane A2 and prostaglandin produced by stimulus of leukotriene D4 [Japan J. Pharmacol., Vol. 60, 227 (1992)].

[2] = test system: broncho-constriction induced by U-46619; assay: Inhibitory effect on broncho-constriction induced by U-46619 (Konzett-Roessler method, oral); assay type: in vivo, Male hartley guinea-pigs; details: 0.3 mg/kg orally, 2 hrs before U-46619 4 μg/kg
Method: Airway resistance was evaluated according to the method of Konzett-Roessler[Naunyn-Schmiedberg's Arch. Exp. Path. Pharmak., Vol. 195, 71 (1940)]. Male hartley guinea-pigs (about 400 g wt.) were anesthetized with urethane (1.5 g/kg, i.p.) and ventilated by an artificial respirator (Model 683; Harvard). At that time, overflowed air volume above the pressure of about 12 cm H2 O was measured by using a sensor (Model 7020; Ugo basile) and the value was used as an index of broncho-constriction. 0.3 mg/kg (5 ml/kg) of test compounds suspended in 5% gum Arabic was administered orally to Guinea-pigs fasted beforehand for 24 hr. After 2 hrs, U-46619 (4 μg/kg; Cayman) was administered through the cervical vein, and then maximal response was measured. Inhibitory rates compared to the reference group were calculated based on the response rate normalized by the complete closure as 100%.

[3] = test system: broncho-constriction induced by leukotriene D4; assay: Inhibitory effect on broncho-constriction induced by leukotriene D4 (Konzett-Roessler method, oral); assay type: in vivo, male Hartley guinea-pig
Method: Airway resistance was evaluated according to the method of Konzett-Roessler[Naunyn-Schmiedberg's Arch. Exp. Path. Pharmak., Vol. 195, 71 (1940)]. After male Hartley guinea-pig fasted beforehand for 24 hr were anesthetized with urethane, overflowed air volume was measured under artificial ventilation as an index of broncho-constriction. 30 mg/kg (5 ml/kg) of test compounds suspended in 5% gum Arabic were administered orally to […]. Leukotriene D4 (1 μg/kg; ULTRA FINE) was administered through the cervical vein after 2 hr, and then values were measured at 2 min after the time when responses became maximum. Inhibitory rates compared to the control group were calculated based on the response rate normalized by the overflowed volume at complete closure as 100% broncho-constriction state. Indomethacin (2 mg/kg, i.v.) and propranolol (1 mg/kg, i.v.) were administered at 10 min and 5 min before the administration of leukotriene D4, respectively.

SMILES	IC50 (thromboxane A2 receptor) [µM]	IC50 [1] [µM]	Kb (leukotriene D4) [µM]	Inhibition rate [2] [%]	leukotriene D4 antagonistic effect (in words) (leukotriene D4)	inhibition in vivo at 30 mg/kg ([3]; Cavia porcellus, po, 30 mg/kg orally, leukotriene D4 1 μg/kg after 2 hr, indomethacin and propranolol pretreatment, read-out: Inhibition rate) [%]	inhibitory effect on broncho-constriction induced by leukotriene D4 (in words) ([3]; guinea pig, in vivo)
CC(C)C(NS(=O)(=O)c1ccc(Cl)cc1)c1ccc(CCCC(=O)O)cc1 (stereo not shown) [Example 69, 4-[4-[1-(4-Chlorophenylsulfonylamino)-2-methylpropyl]phenyl]butyric Acid]	0.2	2					
O=C(O)CCCc1ccc(C(NS(=O)(=O)c2ccc(Cl)cc2)C2CCCC2)cc1 (stereo not shown) [Example 73, 4-[4-[(4-Chlorophenylsulfonylamino)cyclopentylmethyl]phenyl]butyric Acid]	0.25	1.6					
O=C(O)CCCc1ccc(C(NS(=O)(=O)c2ccc(Cl)cc2)C2CCCCC2)cc1 (stereo not shown) [Example 74, 4-[4-[(4-Chlorophenylsulfonylamino)cyclohexylmethyl]phenyl]butyric Acid]	0.32	3.2	0.501				
O=C(O)Cc1ccc(CCNS(=O)(=O)c2ccc(Cl)cc2)cc1 [Reference compound, reference compound]		40	> 100	18	inactive	≤ 0	no inhibitory effect
